This note sets out measurements from patent publication US5198424A, “Functionally active selectin-derived peptides” (Board of Regents of the University of Oklahoma, priority 1992, dated 1993).

In experiment [1] the target is T1, GMP-140 (Homo sapiens, UniProt P16109).
T1 sequence (P16109 42-830): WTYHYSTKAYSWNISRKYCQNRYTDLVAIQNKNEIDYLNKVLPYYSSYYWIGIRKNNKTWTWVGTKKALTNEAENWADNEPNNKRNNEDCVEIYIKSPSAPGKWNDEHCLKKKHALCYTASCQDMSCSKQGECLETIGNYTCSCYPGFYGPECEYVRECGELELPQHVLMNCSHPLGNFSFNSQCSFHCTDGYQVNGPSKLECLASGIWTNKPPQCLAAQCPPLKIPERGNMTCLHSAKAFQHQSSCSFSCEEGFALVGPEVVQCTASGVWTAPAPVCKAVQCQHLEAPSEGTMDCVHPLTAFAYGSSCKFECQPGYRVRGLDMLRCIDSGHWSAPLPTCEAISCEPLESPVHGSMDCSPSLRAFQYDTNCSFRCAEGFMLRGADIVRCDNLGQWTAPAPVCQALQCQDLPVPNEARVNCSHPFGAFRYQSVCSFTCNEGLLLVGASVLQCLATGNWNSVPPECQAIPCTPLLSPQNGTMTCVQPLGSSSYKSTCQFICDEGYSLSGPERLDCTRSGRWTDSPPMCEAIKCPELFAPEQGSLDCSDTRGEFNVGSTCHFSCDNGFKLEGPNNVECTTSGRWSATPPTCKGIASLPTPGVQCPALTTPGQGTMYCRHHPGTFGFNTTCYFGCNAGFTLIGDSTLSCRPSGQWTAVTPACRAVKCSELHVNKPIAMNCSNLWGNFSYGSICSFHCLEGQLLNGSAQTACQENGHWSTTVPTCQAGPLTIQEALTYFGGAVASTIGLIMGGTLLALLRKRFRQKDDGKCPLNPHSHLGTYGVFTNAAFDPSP
Put plainly: Neutrophil adhesion to purified GMP-140 immobilized on plastic wells (myeloperoxidase readout). Type of experiment: cell-based. More on the design: from tissue; host or cells: outdated human platelet packs (platelet lysate). The note with it: for % Bound (neutrophils bound to immobilized GMP-140 in the presence of GMP-140-derived peptide): peptide 1.5 mM, cells bound with control C-terminal peptide 761-777 normalized to 100%; for adhesion of neutrophils to immobilized GMP-140 abolished: neutrophils treated with the protease. The text has this: Peptides were screened for their ability to inhibit neutrophil adhesion to purified GMP-140 immobilized on plastic wells, using the assay described by Geng, et al., Nature 343, 757-760 (1990).
Human neutrophils are isolated from heparinized whole blood by density gradient centrifugation on Mono-Poly resolving media, Flow Laboratories. Neutrophil suspensions are greater than 98% pure and greater than 95% viable by trypan blue exclusion. For adhesion assays, neutrophils are suspended at a concentration of 2×10^6 cells/ml in Hanks' balanced salt solution containing 1.26 mM Ca^2+ and 0.81 mM Mg^2+ (HBSS, Gibco) with 5 mg/ml human serum albumin (HBSS/HSA). Adhesion assays are conducted in triplicate in 96-well microtiter plates, Corning, incubated at 4° C. overnight with 50 microliters of various protein solutions.
GMP-140 is plated at 5 micrograms/ml and the control proteins: human serum albumin (Alb), platelet glycoprotein IIb/IIIa (IIb), von Willebrand factor (vWF), fibrinogen (FIB), thrombomodulin (TM), gelatin (GEL) or human serum (HS), are added at 50 micrograms/ml. All wells are blocked for 2 h at 22° C. with 300 microliters HBSS containing 10 mg/ml HSA, then washed three times with HBSS containing 0.1% Tween-20 and once with HBSS. Cells (2×10^5 per well were added to the wells and incubated at 22° C. for 20 min. The wells were then filled with HBSS/HSA, sealed with acetate tape (Dynatech), and centrifuged inverted at 150 g for 5 min. After discarding nonadherent cells and supernates, the contents of each well are solubilized with 200 microliters 0.5% hexadecyltrimethylammonium bromide, Sigma, in 50 mM potassium phosphate, pH 6.0, and assayed for myeloperoxidase activity, Ley, et al., Blood 73, 1324-1330 (1989). The number of cells bound was derived from a standard curve of myeloperoxidase activity versus numbers of cells. Under all assay conditions, the cells released less than 5% of total myeloperoxidase and lactate dehydrogenase. Results are presented in Table I. 100% adhesion is that seen in the presence of the C-terminal peptide (amino acid residues 761-777 of GMP-140) as a negative control; this value is the same as controls in which neither peptide nor antibody is added to the cells. Inhibition is read as a lower percent adhesion, so that a value of 5% mean that 95% of the specific adhesion was inhibited.
Peptides from the lectin-like domain of GMP-140 were assayed for their ability to inhibit adhesion of neutrophils to immobilized GMP-140 in the assay described in example 1. Concentrations tested ranged from 0.1 mM to 1.5 mM.

In experiment [2] the target is T1, GMP-140. The experiment in a line: ELISA of binding of biotinylated monoclonal antibodies G1, G2, G3 to immobilized GMP-140 with soluble peptide. More on the design: from tissue; host or cells: outdated human platelet packs (platelet lysate). The settings on record: 2 h, peptide 1.5 mM. The method, then:
Based on competitive ELISAs with the purified protein, G1, G2, and G3 each recognize distinct or only partially overlapping epitopes. 1.5 mM peptide was added to biotinylated mAb at a concentration of 2.5 micrograms/ml, which were then added to the wells containing GMP-140, as described in example 1. Binding was measured by an ELISA with an avidin detection system.
The monoclonal antibodies were biotinylated as follows: to 0.5 ml of purified IgG antibody (1 mg/ml in PBS, pH 7.4) was added 50 μl of 3.2 mM N-hydroxysuccinimide biotin in dimethyl sulfoxide and 50 μl of 1 M NaHCO3. After a 2 hour incubation at room temperature in the dark, the reaction was stopped with 50 μl of 1 M NH4 Cl. The biotinylated antibody was then separated from other components by gel filtration on a PD-10 column equilibrated in PBS. The ELISA was performed as follows; all steps were performed at room temperature.
Biotinylated antibody (2.5 μg/ml) with or without 1.5 mM peptide was incubated with wells coated with GMP-140 as described in example 1. After a 2 hour incubation, the antibody was removed, the wells were washed, and 0.1 ml of horseradish peroxidase-conjugated stepavidin (Pierce), diluted 1:1000 in HBSS/HSA, was added for 30 min. The wells were then washed and 0.1 ml of peroxidase substrate (Pierce) was added for 15 min. The color reaction was read at 405 nm.
Background: In an ELISA, binding on a coated surface is turned into a signal by an enzyme label.

[3] abbreviates: mAb G1 2.5 micrograms/ml, read-out: % Binding of Biotinylated MAbs G1.
[4] abbreviates: mAb G2 2.5 micrograms/ml, read-out: % Binding of Biotinylated MAbs G2.
[5] abbreviates: mAb G3 2.5 micrograms/ml, read-out: % Binding of Biotinylated MAbs G3.

Like-named read-outs stand apart in the source and are kept apart here. Ends that are not written are not given here.

With NRYTDLVAI [21-29], in experiment [1], the “% Bound (neutrophils bound to immobilized GMP-140 in the presence of GMP-140-derived peptide)” value (“% Bound” below) is 71%.

With NRYTDLVAIQ [21-30], in experiment [1], the “% Bound” value is listed as 20%.

Regarding PNNKRNNED [81-89], in experiment [1], the “% Bound” value worked out at 104%.

Regarding RKNNK [54-58], the “% Bound” value in experiment [1] came to 108%.

As to RKNNKT [54-59], in experiment [1], the “% Bound” value was found to be 86%.

On to RKNNKTW [54-60], for which, in experiment [1], the “% Bound” value is listed as 63%.

Consider RKNNKTWTWV [54-63], for which, in experiment [1], the “% Bound” value amounted to 13%.

For the substance “RKRFRQK [TRANSMEMBRANE 755-761, reference compound]”, the values for the remaining activity at 1500 µM in experiment [2] (setting [3]), in experiment [2] (setting [4]) and in experiment [2] (setting [5]) were 100%, 119% and 104%, respectively.

As to RYTDLVAIQ [22-30], in experiment [1], the “% Bound” value stood at 6%.

For the substance SKQGE [EGF 128-132], the remaining activity at 1500 µM in experiment [2] (setting [3]) turned out to be 107%; in experiment [2] (setting [4]), 92%; in experiment [2] (setting [5]), 104%.

As to TWTWV [59-63], in experiment [1], the “% Bound” value was determined as 102%.

With VAIQNKNE [27-34], in experiment [1], the “% Bound” value was found to be 91%.

With VEIYIKSPSAPGKWNDEH [LECTIN 91-108], the remaining activity at 1500 µM worked out at 97% in experiment [2] (setting [3]), 93% in experiment [2] (setting [4]) and 96% in experiment [2] (setting [5]).

YPGFYGPECEYVRE [EGF 145-158]: the values for the remaining activity at 1500 µM in experiment [2] (setting [3]), in experiment [2] (setting [4]) and in experiment [2] (setting [5]) were 94%, 92% and 108%, respectively.

As for YTASCQDMS [LECTIN/EGF 118-126], the values for the remaining activity at 1500 µM in experiment [2] (setting [3]), in experiment [2] (setting [4]) and in experiment [2] (setting [5]) were 92%, 92% and 104%, respectively.

Take YTDLVAIQ [23-30]: the “% Bound” value in experiment [1] is listed as 7%.

As to YTDLVAIQNKNE [23-34], the “% Bound” value in experiment [1] was 30%.

Regarding elastase [reference compound], the “adhesion of neutrophils to immobilized GMP-140 abolished” value in experiment [1] is recorded as “Greater than 70%”.

With trypsin [reference compound], in experiment [1], the “adhesion of neutrophils to immobilized GMP-140 abolished” value is “Greater than 70%”.
